According to PubChem BioAssay (NCI):
Several values for one entry are separate records, joined by “and”; a condition that tells them apart may be missing. Equal values may be shown once.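 Compound exposure: 48 hours, 5 concentrations, 96-well plates. GI50 is the concentration that inhibits growth by half. TGI: total growth inhibition.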

Legend:
Test in all cases: inhibition of tumour cell growth, NCI panel, 48 h
[1] = system: HCC-2998 colon
[2] = system: HCT-116 colon
[3] = system: HOP-92 NSCLC
[4] = system: K-562 leukemia
[5] = system: KM12 colon
[6] = system: OVCAR-8 ovarian
[7] = system: MDA-MB-231 breast
[8] = system: PC-3 prostate
[9] = system: T-47D breast
[10] = system: TK-10 renal

Row | SMILES | TGI [1] | TGI [2] | TGI [3] | TGI [4] | TGI [5] | TGI [6] | TGI [7] [µM] | TGI [8] [µM] | TGI [9] [µM] | TGI [10] | GI50 [2] [µM] | GI50 [3] [µM] | GI50 [5] [µM] | GI50 [7] [µM] | GI50 [8] [µM] | GI50 [9] [µM] | GI50 [10] | GI50 [1] | GI50 [4]
1 | O=P(NCCCO)(OCc1ccccc1)N(CCCl)CCCl (configuration not stated) | > 100 µM | > 100 µM | > 100 µM | > 100 µM | > 100 µM | > 100 µM |  |  |  |  |  |  |  |  |  |  |  |  | 
2 | COC(=O)c1c(O)ccc2c1c1cc3ccccc3c(O)c1n2CCc1ccc(OC)c(OC)c1 | 86.8 µM | > 100 µM | > 100 µM | > 100 µM | > 100 µM | > 100 µM | > 100 | > 100 | > 100 | > 100 µM |  |  |  |  |  |  |  |  | 
3 | COc1cccc(C23CCN(C)C(CC(O)C2)C3)c1OC (configuration not stated) |  | > 100 µM | > 100 µM | > 100 µM | > 100 µM | > 100 µM | > 100 | > 100 | > 100 | > 100 µM |  |  |  |  |  |  |  |  | 
4 | O=C(Cc1nc2ccccc2[nH]c1=O)c1c[nH]c2ccccc12 | 41.6 µM | 56.2 µM | > 100 µM | > 100 µM | 58 µM | 45.9 µM | 54.2 | 31.3 | 47.6 | 34.1 µM |  |  |  |  |  |  |  |  | 
5 | Nc1nc(SCC(=O)c2ccc(Br)cc2)c2[nH]cnc2n1 |  | > 100 µM | 62.1 µM | > 100 µM | > 100 µM | > 100 µM | > 100 | > 100 | 98.7 | 56.8 µM |  |  |  |  |  |  |  |  | 
6 | C/C(C=O)=C/[C@@]1(C)O[C@@H](C)[C@@](C)(O)[C@@H]1O | 48.2 µM | > 100 µM | > 100 µM | > 100 µM | > 100 µM | 40 µM | > 100 | > 100 | > 100 | > 100 µM |  |  |  |  |  |  |  |  | 
7 | C#C[C@]1(O)CC[C@H]2[C@@H]3CCc4cc(O)ccc4[C@H]3CC[C@@]21C | 73.8 µM | > 100 µM | 95 µM |  | > 100 µM | > 100 µM |  |  |  | > 100 µM |  |  |  |  |  |  |  |  | 
8 | O=C(Nc1ccccc1)Oc1ccc(C(=S)Nc2ccc(Br)cc2)cc1 | 40.8 µM | 37.2 µM |  | > 100 µM | 32.4 µM | 29.2 µM |  | 89.8 | 75.1 |  |  |  |  |  |  |  |  |  | 
9 | CCCCCCCCCCCCCCCc1nc(=S)[nH][nH]1 | > 100 µM | > 100 µM |  | > 100 µM | > 100 µM |  |  |  |  | > 100 µM |  |  |  |  |  |  |  |  | 
10 | CCOc1nc2c(N3CCCC3)nc(N3CCNCC3)nc2nc1NCc1ccccc1 | 2.62 µM | 2.14 µM | 2.5 µM | 2.61 µM | 3.08 µM | 4.1 µM | 2.84 | 3.63 | 3.13 | 5.58 µM |  |  |  |  |  |  |  |  | 
11 | CC1=NN(c2nc(N)nc(/C(C#N)=C\c3ccc(-c4ccc([N+](=O)[O-])cc4)o3)n2)C(C)(C)C1 | > 100 µM | > 100 µM | > 100 µM | > 100 µM | > 100 µM | > 100 µM | > 100 | > 100 | > 100 | > 100 µM |  |  |  |  |  |  |  |  | 
12 | COc1ccccc1-c1c(C#N)c(N)[nH]c(=S)c1C#N | > 100 µM | > 100 µM | > 100 µM | > 100 µM | > 100 µM | > 100 µM | > 100 | > 100 |  | > 100 µM |  |  |  |  |  |  |  |  | 
13 | Cc1ccc(-c2cc(-c3ccc(Cl)cc3)nc(/N=C3\C(=O)N(CN(C)C)c4ccccc43)n2)cc1 |  | > 100 µM | > 100 µM | > 100 µM | > 100 µM | > 100 µM | > 100 | > 100 | > 100 | > 100 µM |  |  |  |  |  |  |  |  | 
14 | Oc1ccccc1C=Nc1ccc(-c2nc3ccccc3s2)cc1 | 45.4 µM | > 100 µM | 56.4 µM | > 100 µM | > 100 µM | > 100 µM |  | 56.8 | 84.8 | 71.4 µM |  |  |  |  |  |  |  |  | 
15 | COC(=O)/C=C\C(C#N)(C#N)N=Cc1ccc(OC)cc1 | 41.1 µM | 3.77 µM | 4.61 µM | > 58.6 µM | 32.6 µM | 9.46 µM | 37.7 | 19.6 | 4.53 | 6.73 µM |  |  |  |  |  |  |  |  | 
16 | CC(C)CC(N)C(=O)NC(C(=O)NC(CCCNC(=N)N)C(=O)NC(CS)C(=O)NC1CSCC(C(=O)NC(Cc2ccccc2)C(=O)NC(C(=O)NC(CCCNC(=N)N)C(=O)O)C(C)C)NC(=O)C2CCCN2C(=O)C(CCCCN)NC(=O)C2CCCN2C(=O)C2CCCN2C(=O)C(Cc2ccc(O)cc2)NC(=O)C(CO)NC(=O)C(CCCCN)NC(=O)C(C(C)O)NC(=O)C(Cc2c[nH]c3ccccc23)NC1=O)C(C)C (configuration not stated) |  | > 25 µM | > 25 µM | > 25 µM | > 25 µM | > 25 µM | > 25 | > 25 | > 25 | > 25 µM |  |  |  |  |  |  |  |  | 
17 | Cc1c(-c2ccccc2)[nH]c2cn[nH]c(=O)c12 | > 100 µM | > 100 µM | > 100 µM | > 100 µM | > 100 µM | > 100 µM | > 100 | > 100 |  | > 100 µM |  |  |  |  |  |  |  |  | 

Row | SMILES | TGI [1] | TGI [2] | TGI [3] | TGI [4] | TGI [5] | TGI [6] | TGI [7] [µM] | TGI [8] [µM] | TGI [9] [µM] | TGI [10] | GI50 [2] [µM] | GI50 [3] [µM] | GI50 [5] [µM] | GI50 [7] [µM] | GI50 [8] [µM] | GI50 [9] [µM] | GI50 [10] | GI50 [1] | GI50 [4]
18 | CC(Oc1ccc(Cl)cc1Cl)C(=O)NN1C(=O)CC(=O)N(c2ccccc2)C1=S (configuration not stated) | > 100 µM | > 100 µM | 84 µM | > 100 µM | > 100 µM | > 100 µM | > 100 | > 100 | > 100 | > 100 µM |  |  |  |  |  |  |  |  | 
19 | CCc1n[nH]c(=O)n1/N=C(\C)c1ccccc1 |  | > 100 µM |  | > 100 µM | > 100 µM | > 100 µM | > 100 | > 100 | > 100 | > 100 µM |  |  |  |  |  |  |  |  | 
20 | COc1ccc(CCn2cncn2)cc1 | > 100 µM | > 100 µM | > 100 µM | > 100 µM | > 100 µM |  |  |  |  | > 100 µM |  |  |  |  |  |  |  |  | 
21 | COC(=O)c1c(O)ccc2c1c1c(n2Cc2cc(OC)cc(OC)c2)C(=O)c2ccccc2C1=O | 5.73 µM | 15.1 µM | 24.6 µM | > 100 µM | 13.6 µM | 90.3 µM | 35.7 | 19.3 | 50.5 | 41.1 µM |  |  |  |  |  |  |  |  | 
22 | COc1ccc2nc3cc(Cl)ccc3c(NCCCN3CCN(CCCNc4ccc5nnn6c7ccccc7c(=O)c4c56)CC3)c2c1 | > 9.86 µM | > 20.2 µM | > 25 µM | > 25 µM | > 25 µM | > 25 µM | > 18.2 | > 25 | > 25 | > 25 µM |  |  |  |  |  |  |  |  | 
23 | CN(C)c1ccc(-c2ccc(-c3ccc(C(=N)N)cn3)o2)cc1 |  | 2.92 µM | 2.87 µM |  | 3.01 µM |  | 3.77 | 2.93 | 3.67 | 3.39 µM | 1.47 | 1.27 | 1.43 | 1.8 | 1.5 | 1.73 | 1.95 µM |  | 
24 | C=C1C(O)C2(O)OCC34C(CC5C(C)=CC(=O)C(O)C5(C)C23)OC(=O)C(OC(=O)C/C=C/CCCCCCCC)C14 (configuration not stated) | 0.0308 µM | 0.116 µM | 0.0229 µM | 0.251 µM | 0.0751 µM | 0.0241 µM |  |  |  |  |  |  |  |  |  |  |  |  | 
25 | CN(CCc1ccccn1)c1ccc2c(c1)C(=O)c1ccccc1-2 | > 100 µM | > 100 µM | > 100 µM | > 100 µM | > 100 µM | > 100 µM | > 100 | > 100 | > 100 | > 100 µM |  |  |  |  |  |  |  |  | 
26 | O=C1c2c(Br)sc(Br)c2[C@@H](O)[C@H]1O | 34.4 µM | 32.4 µM | 35.3 µM | > 36.8 µM | 45.1 µM | > 44.4 µM | 31.4 | 33.1 | 43.7 | > 100 µM |  |  |  |  |  |  |  |  | 
27 | N#C/C(=C(/O)CCl)c1nc2ccccc2o1 |  | 29.2 µM | 14.5 µM | 9.36 µM | 53.3 µM | 14.9 µM | 9.41 | 22.8 | 44.6 | > 100 µM |  |  |  |  |  |  |  |  | 
28 | Cc1ccc(-c2cn3c(nc4ccccc43)c(/C=C/c3ccco3)n2)cc1 | > 100 µM | > 100 µM | > 100 µM | > 100 µM | > 100 µM |  | > 100 |  | > 100 | > 100 µM |  |  |  |  |  |  |  |  | 
29 | COc1ccc(C2C3CCc4ccccc4C3=NN2S(=O)(=O)c2cccc(C(=O)O)c2OC)cc1 (configuration not stated) |  | > 100 µM | > 100 µM | > 100 µM | > 100 µM | > 100 µM | > 100 | > 100 | > 100 | > 100 µM |  |  |  |  |  |  |  |  | 
30 | O=c1c2cc(O)ccc2n2nnc3ccc(NCCNCCO)c1c32 | 26.4 µM and 14.5 µM | > 100 µM and 28.6 µM | 16.5 µM and 12.9 µM | > 62.8 µM and 14.7 µM | > 85.3 µM and 25.2 µM | 42 µM and 17.7 µM |  |  |  | > 50 µM and 60.8 µM |  |  |  |  |  |  | 3.75 µM and 9.62 µM | 10.9 µM and 3.43 µM | 6.58 µM and 2.59 µM
31 | CC(Oc1ccccc1Cl)C(=O)NN1C(=O)CC(=O)N(c2ccc(Cl)cc2)C1=S (configuration not stated) | > 100 µM | > 100 µM | 63.2 µM | > 100 µM | > 100 µM | > 100 µM | > 100 | > 100 | > 100 | > 100 µM |  |  |  |  |  |  |  |  | 
32 | CC(=O)c1ccc(Nc2c3ccccc3nc3occc23)cc1 | 0.794 µM | > 34.7 µM | 83.5 µM | > 100 µM | 1.59 µM | 7.01 µM | 0.541 | > 100 | 32.8 | 15.7 µM |  |  |  |  |  |  |  |  | 
33 | COc1cc(C2S/C(=C/c3ccccc3)C(=O)N2c2cccc(NC(C)=O)c2)cc(OC)c1OC (configuration not stated) | > 100 µM | 37.2 µM | 85.7 µM | > 100 µM | 82 µM | > 100 µM | 50.7 | 48.9 | 68.6 | > 100 µM |  |  |  |  |  |  |  |  | 
